Experimental data: US8927545B2, “Inhibiting Eph B-3 kinase” (Duke University, priority 2009, dated 2015)
“Also recorded” adds a separate entry of the source.

What was measured:
[1] = test system: Animal Model for Stroke (ischemia); assay: Infarct volume in animal model for stroke (2 h artery occlusion, compound ICV, TTC staining); type: in vivo, Sprague-Dawley rats; details: different doses administered ICV; FIG. 6(E), FIG. 7(A)
[2] = test system: Animal Model for Stroke (ischemia); assay: Neurological score / neurological deficit after ischemic injury; details: rated between 0 (unaffected) and 4 (worst); different doses; FIG. 7(B)
[3] = test system: panel of tumor cell lines; assay: Dose-response against a panel of tumor cell lines (SRB, % growth); type: cell-based, human; details: leukemia, non-small cell lung, colon, CNS, melanoma, ovarian, renal, prostate, breast cancer lines; FIG. 8(A)-(I)
Procedure: The y-axis depicts the % growth and the x-axis depicts the compound concentration. The legends below each graph refer to the different tumor cell lines used. […]
The human tumor cell lines of the cancer screening panel were grown in RPMI 1640 medium containing 5% fetal bovine serum and 2 mM L-glutamine. For a typical screening experiment, cells were inoculated into 96 well microtiter plates in 100 μL at plating densities ranging from 5,000 to 40,000 cells/well depending on the doubling time of individual cell lines. After cell inoculation, the microtiter plates were incubated at 37° C., 5% CO2, 95% air and 100% relative humidity for 24 hours prior to addition of experimental drugs. […]
Following drug addition, the plates were incubated for an additional 48 h at 37° C., 5% CO2, 95% air, and 100% relative humidity. […] Bound stain was subsequently solubilized with 10 mM trizma base, and the absorbance is read on an automated plate reader at a wavelength of 515 nm. […] Using the seven absorbance measurements [time zero, (Tz), control growth, (C), and test growth in the presence of drug at the five concentration levels (Ti)], the percentage growth was calculated at each of the drug concentrations levels. Percentage growth inhibition was calculated as: [(Ti−Tz)/(C−Tz)]×100 for concentrations for which Ti>/=Tz [(Ti−Tz)/Tz]×100 for concentrations for which Ti<Tz. […]

[4] = target: T1, recombinant human EphB3 kinase (Homo sapiens, UniProt P54753); assay: IC50 for inhibiting EphB3 phosphorylation of the BTK peptide (33P radiometric assay, assay of Examples 1-6); type: biochemical; details: for IC50: inhibiting EphB3 phosphorylation of the BTK peptide (SEQ ID NO: 4); for EphB3 tyrosine kinase inhibitor activity (in words): inhibition of EphB3 phosphorylation of the BTK peptide
T1 sequence (P54753 633-896 limits assumed): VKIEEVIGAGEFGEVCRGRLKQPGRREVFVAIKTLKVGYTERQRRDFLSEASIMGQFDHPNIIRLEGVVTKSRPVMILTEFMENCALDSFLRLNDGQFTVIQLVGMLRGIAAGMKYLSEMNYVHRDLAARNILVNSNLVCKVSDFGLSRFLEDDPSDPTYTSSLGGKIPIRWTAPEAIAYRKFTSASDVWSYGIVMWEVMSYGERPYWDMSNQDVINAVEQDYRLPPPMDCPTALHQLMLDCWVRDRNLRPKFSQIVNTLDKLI

[5] = target: T2, recombinant human EphB3 kinase (Homo sapiens, UniProt P54753); assay: HTRF assay of BTK substrate phosphorylation by EphB3 kinase (known kinase inhibitors)
T2 sequence (P54753 585-998): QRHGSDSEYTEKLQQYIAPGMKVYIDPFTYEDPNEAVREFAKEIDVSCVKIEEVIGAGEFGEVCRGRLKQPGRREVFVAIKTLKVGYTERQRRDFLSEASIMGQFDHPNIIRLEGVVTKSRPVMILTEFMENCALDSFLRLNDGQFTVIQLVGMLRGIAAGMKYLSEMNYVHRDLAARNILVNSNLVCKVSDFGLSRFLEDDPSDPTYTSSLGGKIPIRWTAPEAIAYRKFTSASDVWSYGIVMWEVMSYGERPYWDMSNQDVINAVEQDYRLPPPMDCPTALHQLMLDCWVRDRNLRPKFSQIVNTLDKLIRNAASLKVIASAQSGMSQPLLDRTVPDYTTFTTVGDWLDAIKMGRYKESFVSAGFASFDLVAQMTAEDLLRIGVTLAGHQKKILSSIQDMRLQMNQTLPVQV

recombinant EphB3 = target: T3, recombinant EphB3 (Homo sapiens, UniProt P54753); details: published data, scintillation proximity assay, different substrate; cited from earlier work
T3 sequence (P54753 34-998): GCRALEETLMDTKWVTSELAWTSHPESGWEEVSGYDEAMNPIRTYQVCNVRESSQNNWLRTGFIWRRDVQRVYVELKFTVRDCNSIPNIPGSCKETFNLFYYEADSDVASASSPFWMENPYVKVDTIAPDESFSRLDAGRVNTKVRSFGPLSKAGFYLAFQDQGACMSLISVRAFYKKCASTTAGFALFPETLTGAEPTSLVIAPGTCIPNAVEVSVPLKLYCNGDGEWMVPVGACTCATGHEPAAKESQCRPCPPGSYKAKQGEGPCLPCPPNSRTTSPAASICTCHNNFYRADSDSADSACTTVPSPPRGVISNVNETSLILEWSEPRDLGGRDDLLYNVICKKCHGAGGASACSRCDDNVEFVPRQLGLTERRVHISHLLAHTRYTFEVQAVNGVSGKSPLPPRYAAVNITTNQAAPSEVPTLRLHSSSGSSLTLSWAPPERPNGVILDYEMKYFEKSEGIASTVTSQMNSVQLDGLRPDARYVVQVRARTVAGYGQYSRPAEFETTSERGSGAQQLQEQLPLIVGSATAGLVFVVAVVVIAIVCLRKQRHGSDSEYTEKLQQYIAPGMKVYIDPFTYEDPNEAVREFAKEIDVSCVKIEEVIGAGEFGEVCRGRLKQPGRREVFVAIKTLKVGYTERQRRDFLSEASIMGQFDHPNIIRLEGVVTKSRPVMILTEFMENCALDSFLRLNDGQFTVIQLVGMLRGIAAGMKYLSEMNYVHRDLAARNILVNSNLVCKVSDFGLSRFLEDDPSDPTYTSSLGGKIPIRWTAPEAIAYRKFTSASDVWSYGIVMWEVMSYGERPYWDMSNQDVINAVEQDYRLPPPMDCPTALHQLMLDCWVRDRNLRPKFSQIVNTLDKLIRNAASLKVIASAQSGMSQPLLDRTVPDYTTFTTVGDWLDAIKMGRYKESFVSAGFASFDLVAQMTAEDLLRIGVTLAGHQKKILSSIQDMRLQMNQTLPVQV

[6] = Table 1 pyrazolo[1,5-a]pyridine compounds

Row | SMILES | IC50 [4, 6] [µM] | EphB3 tyrosine kinase inhibitor activity (in words) [4] | other results
1 | O=C(Nc1ccccc1Cl)c1cnc2ccc(C3CCNCC3)cn12 [Compound 211904, N-(2-chlorophenyl)-6-(piperidin-4-yl)imidazo[1,2-a]pyridine-3-carboxamide] |  |  | Infarct volume at different compound doses [1]: dose-dependent decrease in infarct volume; Neurological deficit [2]: dose-dependent neuroprotection in behavior; % growth of tumor cell lines [3]: inhibited
2 | O=C(Nc1ccc(Cl)cc1)c1cnn2ccccc12 [Compound 187601] | > 20 | little or no inhibition | 
3 | O=C(Nc1ccccc1Cl)c1cnn2ncccc12 [Compound 193697] |  |  | IC50 ([4]; Table 2 candidate compounds): > 20 µM
4 | Cn1cc(C(=O)Nc2ccccc2Cl)c2ccccc21 [Compound 187609] |  |  | IC50 ([4]; Table 2 candidate compounds): > 20 µM
5 | O=C(Nc1ccccc1Cl)c1noc2ccccc12 [Compound 193671] |  |  | IC50 ([4]; Table 2 candidate compounds): > 20 µM
6 | O=C(Nc1ccccc1)c1cnn2ccccc12 [Compound 187598] | > 20 | little or no inhibition | 
7 | O=C(Nc1ccccc1Cl)c1ccnc2ccccc12 [Compound 187611] |  |  | IC50 ([4]; Table 2 candidate compounds): > 20 µM
8 | CC(C)(C)n1nc(-c2ccc(Cl)cc2)c2c(N)ncnc21 [PP2] |  |  | IC50 ([5]; 12.5 nM EphB3, 30 min preincubation at RT, […] ATP, 600 nM BTK for 1 hr): 1.7 µM; inhibition ([5]; at 10 μM, HTS positive control): 80%; IC50 (recombinant EphB3): 0.8 µM
9 | O=C(Nc1ccccc1Cl)c1cnn2ccccc12 [Compound 1] |  | showed EphB3 tyrosine kinase inhibitor activity | 
10 | CN(C(=O)c1cnn2ccccc12)c1ccccc1Cl [Compound 187597] | > 20 | inactive | 
11 | O=C(Nc1ccccc1Cl)c1cnn2cccnc12 [Compound 193695] |  |  | IC50 ([4]; Table 2 candidate compounds): > 20 µM
12 | O=C(Nc1ccccc1Cl)c1cnc2ccc(Br)cn12 [Compound 209925, 6-bromo-N-(2-chlorophenyl)imidazo[1,2-a]pyridine-3-carboxamide] |  |  | IC50 ([4]; Table 3 imidazo[1,2-a]pyridine compounds): < 0.2 µM
13 | CN[C@@H]1C[C@H]2O[C@@](C)([C@@H]1OC)n1c3ccccc3c3c4c(c5c6ccccc6n2c5c31)C(=O)NC4 [Staurosporine, staurosporine] |  |  | inhibition at 100 µM ([5]; read-out: inhibition of phosphorylation): 50%
14 | O=C(NCc1ccccc1Cl)c1cnn2ccccc12 [Compound 187604] | > 20 | little or no inhibition; also recorded: inactive | 

Second part, led by results:

Row | IC50 [4, 6] [µM] | EphB3 tyrosine kinase inhibitor activity (in words) [4] | SMILES | other results
15 | < 0.3 |  | O=C(Nc1ccccc1Cl)c1cnn2ccc(N3CCCC3)cc12 [Compound 194727, N-(2-chlorophenyl)-5-(pyrrolidin-1-yl)pyrazolo[1,5-a]pyridine-3-carboxamide] | 
16 | > 20 | little or no inhibition | COc1ccccc1NC(=O)c1cnn2ccccc12 [Compound 187605] | 
17 | > 20 |  | Cc1cccc2c(C(=O)Nc3ccccc3Cl)cnn12 [Compound 193694] | 
18 | > 20 | little or no inhibition | O=C(Nc1cccc(Cl)c1)c1cnn2ccccc12 [Compound 187600] | 
